Laboratory results reported in patent US12246009B2, “Compositions and methods for treating neurodegenerative, myodegenerative, and lysosomal storage disorders” (GEORGETOWN UNIVERSITY, priority 2018, dated 2025).

Test system: α-synuclein
Assay: α-synuclein ELISA in α-synuclein-transfected B35 cells
Assay type: cell-based, rat
Details: transfected B35 cell culture model, doses 10 uM-1 mM
Protocol: Rat neuroblastoma B35 cells were grown in Dulbecco's Modified Eagle's Medium (DMEM) with 10% Fetal Bovine Serum (FBS) and 1% penicillin/streptomycin and incubated at 37° C. with 5% CO2. For the experiments, cells were transferred to 12-well plates (Cat. #150628, ThermoFisher, Waltham, MA) and grown to at least 70% confluence. Transient transfection was performed with 3 μg P301 L tau (Cat. #30145, Addgene) cDNA or 3 μg human α-synuclein cDNA using Fugene HD transfection reagent (Cat. #E2311, Promega, Madison WI) for 24 hours. Cells were treated with 1 mM, 100 μM, 10 μM, 1 μM, 0.1 μM, 0.01 μM, and 0.001 μM dissolved in DMSO or an equivalent 5 ul of DMSO for 5 hours. Cell culture media was collected and cells were harvested using sodium-tris, EDTA, NP-40 (STEN) buffer and centrifuged at 10,000×g for 20 minutes at 4′C and supernatant was collected. Cell viability was determined via lactate dehydrogenase assay (Cat. #88954, Thermofisher) and MTT assay (Cat. #V13154, Thermofisher). Protein was extracted by removing culture medium and adding 0.2 ml 1× STEN buffer (50 mM. Tris (pH 7.6), 150 mM NaCl, 2 mM EDTA, 0.2% NP-40, 0.2% BSA, 20 mM. PMSF and protease cocktail inhibitor) to cell layer and incubated on ice for 10 minutes. The bottom of the well was scraped and allowed to incubate on ice for an additional 10 minutes. Cell lysates were collected, stored at −80° C., and used for additional analyses.
To perform transient transfection of α-synuclein into the rat neuroblastoma B35 cells FuGene® HD Transfection Reagent (Promega Corporation, Madison, WI) was used. Cells were grown in 12-well dishes. […]
Human α-synuclein and p-tau ELISA were performed using 50 μl (1 μg/4 μl) of cell lysates detected with 50 μl primary antibody (3 h) and 100 μl anti-rabbit secondary antibody (30 min) at RT. α-Synuclein levels were measured using human specific ELISA (Invitrogen Inc., Carlsbad, CA) according to manufacturer's protocols. Tau was measured using specific tau at serine 396 according to manufacturer's protocol. […]

Structure (SMILES): Cc1cccc(-c2cc3nccc(Nc4ccccc4)c3s2)c1 [BK40143, N-Phenyl-2-(m-tolyl)thieno[3,2-b]pyridin-7-amine]
- level of alpha-synuclein: appear to reduce the level of alpha-synuclein
